Data published in patent US12156860B2, “Disorders implicating PUFA oxidation” (BioJiva LLC, priority 2011, dated 2024).

What was measured:
[1] = tested on: stroke-prone spontaneously hypertensive (SHRSP) rat; experiment: SHRSP rat model of hypertension; assay type: in vivo; conditions: SHRSP rats, 8 weeks
Source text: The stroke-prone spontaneously hypertensive (SHRSP) rat model of hypertension, which has been previously described (McIntyre et al., 1997 Hypertension 30:1517; Alexander et al., 1999 Cardiovasc. Res. 43:798; Fennell et al., 2002 Gene Ther. 9:110), can be used for the assessment of a compound's ability to mitigate hypertension.

[2] = Oxidation of mixtures of LA and D2-LA in chlorobenzene; assay type: physicochemical
Description: FIG. 8. Dependence of the rate of oxidation of the mixture of LA and D2-LA in chlorobenzene solution on mixture composition. Conditions: [LA]+[11,11-d2-LA]=0.775 M; [AMVN]=0.0217 M; 37° C. RIN=(1.10±0.08)×10^−7 M/sec.
To simulate the likely in vivo conditions, the kinetics of the oxidation of the mixtures of D2-LA and LA were studied (FIG. 8). In the experiments, the concentration of LA plus 11,11-d2-LA was 0.775 M; the concentration of AMVN was 0.0217 M; and the reactions were carried out at 37° C. The results afforded an RIN of 1.10±0.08×10^−7 M/sec.

rat hearts = experiment: Langendorf isolated heart perfusion model, echo- and electrocardiography; assay type: in vivo; conditions: rats, 8 weeks supplementation
Description: Test compounds disclosed herein can also be assessed using the Langendorf isolated heart perfusion model. […] Following the treatment period, rat hearts are analyzed by echocardiography for measurement of muscle thickness of the left ventricle, left atrium, right ventricle, and right atrium and electrocardiography for measuring electrical activity. After live evaluation, rats are humanely sacrificed and their hearts isolated and connected to the Langendorf isolated perfusion system (See Jennings et al., Am. Surg. 2004; 70(9), 797-800). Left ventricular pressure is then measured with a left ventricular balloon. Coronary flow is also measured. Cardiac function is further assessed by determining the effect of administration of test compounds on the rate of contraction and relaxation of the heart. To determine whether any observed effects on cardiac function are due to the effect of the test compound on mitochondrial function, mitochondrial activity pre-ischemia and post-ischemia is assessed for each of the treatment groups.

NASH (MCD diet) rats = experiment: NASH induced by methionine and choline deficient diet; assay type: in vivo, Rattus norvegicus, Wistar; conditions: daily over three months
Description: Fifty male heterozygous rats, 45-days-old, from the Rattus norvegicus species and Wistar lineage are kept in polypropylene cages, in groups of five animals, under a 12 h-clear/dark cycle and under controlled temperature conditions. The induction of NASH is carried out through a diet deficient in methionine and choline (MCD) according to known procedures (See Rogers A E, Newberne P M. Alcoholic and nutritional fatty liver and cirrhosis. Am J Pathol. 1973; 73:817-20). […] During the study period, the animals are weighed on a weekly basis and the drugs dose is readjusted as necessary. On the first day of the study, besides determining the animals' weight, their blood is collected through retro-orbital plexus puncture for biochemical analysis: alanine-aminotransferase (ALT) and aspartate-aminotransferase (AST) (colorimetric test, using the Labtest kit). One day after concluding the induction period and compound administration (90 days), animals are sacrificed by decapitation. Once more, each animal's blood is collected for biochemical analysis. Then, laparotomy with total hepatectomy and liver preparation are carried out for lipoperoxidation (LPO) and histological analysis. Liver tissue samples are analyzed using the thiobarbituric-acid reactant substance (TBARS) measurement according to known methods (See Lowry et al. Protein measurement with the folin phenol reagent. J Biol Chem. 1951; 193:265-75) and the results are expressed in nmol of malondialdehyde/mg of protein. Slides with liver fragments are also dyed with hematoxilin-eosine and picrosirius, in order to evaluate the fibrosis level, and with Perls to evaluate the presence of iron stores, having been examined by an only pathologist blinded to the animals' data. The minimum histological criterion for NASH diagnosis is the presence of hepatocellular ballooning-related steatosis, involving zone 3 and lobular inflammatory infiltrate. Mallory corpuscles and sinusoidal fibrosis, involving zone 3 might be present or not. The graduation of both necroinflammatory and fibrosis activity is carried out according to known classifications (See Brunt E M, Janney C G, Di Bisceglie A M, Neuschwander-Tetri B A, Bacon B R. Nonalcoholic steatohepatitis: a proposal for grading and staging the histological lesions. Am J Gastroenterol. 1999; 94:2467-74).

Wild-type yeast cells = experiment: C11-Bodipy 581/591 lipid peroxidation in copper-stressed yeast; assay type: cell-based, S. cerevisiae; conditions: 200 μM fatty acid 2 hours, then 50 μM CuSO4 60 min
Description: Wild-type yeast cells were treated as described above except the yeast were treated with 200 μM of the designated fatty acid for 2 hours, washed with sterile water, and were either not treated (triangles) or treated with 50 μM CuSO4 (squares) at room temperature. After 60 min of copper treatment cells were treated with 8 μM C11-Bodipy 581/591 for 30 min at room temperature. Four 100 μl aliquots were plated in a 96-well plate and the fluorescence was measured.

[3] = Kinetics of O2 consumption during AMVN-initiated oxidation in chlorobenzene (glass capillary microvolumeter); assay type: physicochemical
Description: FIG. 7. Kinetics of O2 consumption accompanied the oxidation of 0.71 M LA (plots 1 and 2) and 0.71 M D2-LA (plot 3) in chlorobenzene initiated by 40 mM AMVN at 37° C. Plot 2-0.23 mM HPMC was added to 0.71 M LA.
The kinetics of oxygen consumption during the oxidation of LA and D2-LA was studied with a glass capillary microvolumeter (FIG. 7). The rate of oxidation, ROX, was measured as a slope of [O2] traces. The rate of initiation, RIN, was determined by the inhibitor method with HPMC (“6-hydroxy-2,2,5,7,8-pentamethylbenzochroman”) as a reference inhibitor. RIN was calculated from the induction period of inhibited oxidation, tIND: RIN=2·[HPMC]/tIND. […] When the process was inhibited by 0.23 mM chain-breaking antioxidant HPMC, the duration of the induction period, tIND, was about 48 min, with the RIN value of around 0.16×10^−6 M/s. […] The latter precludes a direct determination of RIN. […] An estimated kinetic isotope effect (“KIE”), from comparison of ROX for LA and D2-LA, was around 6.1×10^−6/0.18×10^−6≈35. A similar KIE was determined during the oxidation of LA and 11,11-d2-LA in Triton X-100 aqueous micelles (data not shown). For comparative purposes, the theoretical KIE is 6.9 at 25° C. See Carpenter, “Determination of Organic Reaction Mechanisms” (John Wiley & Sons, 1984), p. 89.

With `[2H]C([2H])(/C=C\CCCCC)/C=C\CCCCCCCC(=O)O` [D2-LA, 11,11-Dideutero-cis,cis-9,12-Octadecadienoic acid] the systolic blood pressure [1] was “reduction in systolic blood pressure”, the “effect during oxidation of mixture with non-deuterated methyl linoleate” value ([2]; data not shown) was “qualitatively similar effect” and the “effect on autoxidation of non-deuterated LA in mixture” value ([2]; mixtures of D2-LA and LA) was “‘protects’ the non-deuterated LA against autoxidation”. The “symptoms and markers associated with cardiac disorders” value (rat hearts) was “reduce symptoms and markers associated with cardiac disorders”, the “amount of MDA in liver samples (TBARS)” value (NASH (MCD diet) rats) was “reduce the amount of MDA found in liver samples” and the “histological signs of NASH” value (NASH (MCD diet) rats) was “reverse the histological signs of NASH”. For the same compound, the “levels of lipid peroxidation (C11-Bodipy fluorescence)” value (Wild-type yeast cells) was “lower levels of lipid peroxidation similar to yeast not treated with PUFA”, the “rate of oxidation, ROX” value ([3]; 0.71 M in chlorobenzene, 40 mM AMVN, 37° C.) was 1.8e-07 M/s and the “kinetic isotope effect (KIE) from comparison of ROX for LA and D2-LA” value ([3]; chlorobenzene, 37° C.) was “≈ 35”. For the same compound, the “length of the kinetic chain, ROX/RIN” value ([3]; for D2-LA assuming RIN comparable to that of LA) was “≈ 1.1”.
